Where two headings read alike, the source gives them in different places.
Molecular target: T1, 3CL Protease, MBP-tagged (SARS-CoV-2) (Severe acute respiratory syndrome coronavirus 2, UniProt P0DTD1)
T1 construct: The assay was performed using 3CL Protease, MBP-tagged (SARS-CoV-2) Assay kit; MBP; purchased BPS Biosciences 79955-2
Assay: biochemical
Conditions: for IC50: compound study, 10 point dose response curve; for activity at tested concentrations: tested concentrations 0.002-30 µM

[1] = 30 µM concentration, approximate values, read-out: inhibition at 30 µM concentration
[2] = COVID-19 3CL Protease inhibitory activity at 30 µM compound, read-out: % Inhibition at 30 µM
[3] = read-out: % Inhibition at 30 µM, COVID-19 3CL Protease inhibitory activity at 30 µM compound
[4] = COVID-19 3CL Protease inhibitory activity at 30 µM compound
[5] = COVID-19 3CL Protease inhibitory activity at 30 µM compound, 30 µM

Work on `O=C(CCl)N1CCN(Cc2ccc(F)cc2)C2(CCNC2=O)C1` (single isomer, unassigned) [ET-108, 9-(2-chloroacetyl)-6-(4-fluorobenzyl)-2,6,9-triazaspiro[4.5]decan-1-one] yielded an inhibition at 30 µM [1] of roughly 84%, an inhibition at 30 µM [2] of 84% and an IC50 of 6 µM.

`CC(=O)N1CCN(Cc2ccccc2)[C@]2(CCNC2=O)C1` [ES-319] was tested, and the inhibition at 30 µM [3] was 0% and the “activity at tested concentrations” value was “inactive”.

For `CC(=O)N1CCN(Cc2ccccc2)[C@@]2(CCNC2=O)C1` [ES-320], the inhibition at 30 µM [3] was 0% and the “activity at tested concentrations” value was “inactive”.

With `O=C(CCl)N1CCN(Cc2ccccc2)[C@@]2(CCNC2=O)C1` [ET-103, 6-benzyl-9-(2-chloroacetyl)-2,6,9-triazaspiro[4.5]decan-1-one] the inhibition at 30 µM [1] was roughly 44% and the inhibition at 30 µM [2] was 44%.

`O=C(CCl)N1CCN(Cc2ccccc2)[C@]2(CCNC2=O)C1` [ET-104, 6-benzyl-9-(2-chloroacetyl)-2,6,9-triazaspiro[4.5]decan-1-one] showed an inhibition at 30 µM [1] of roughly 92%, an inhibition at 30 µM [2] of 92% and an IC50 of 11.5 µM.

Work on `O=C(CCl)N1CCN(Cc2ccc(F)cc2)C2(CCNC2=O)C1` (stereo not shown) [ET-107, 9-(2-chloroacetyl)-6-(4-fluorobenzyl)-2,6,9-triazaspiro[4.5]decan-1-one] yielded an inhibition at 30 µM [2] of 38%.

With `O=C(CI)N1CCN(Cc2ccccc2)C2(CCNC2=O)C1` (stereo not shown) [ET-109, 6-benzyl-9-(2-iodoacetyl)-2,6,9-triazaspiro[4.5]decan-1-one] the inhibition at 30 µM [3] was 36%.

`O=C(CI)N1CCN(Cc2ccccc2)C2(CCNC2=O)C1` (stereo not shown) [ET-110, 6-benzyl-9-(2-iodoacetyl)-2,6,9-triazaspiro[4.5]decan-1-one] showed an inhibition at 30 µM (read-out: inhibition at 30 µM concentration, 30 µM concentration, approximate values) of roughly 47%.

Molecule `CC(Cl)C(=O)N1CCN(Cc2ccccc2)C2(CCNC2=O)C1` (stereo not shown) [ET-111, 6-benzyl-9-(2-chloropropanoyl)-2,6,9-triazaspiro[4.5]decan-1-one] has an inhibition at 30 µM [3] of 0%.

For `CC(Cl)C(=O)N1CCN(Cc2ccccc2)C2(CCNC2=O)C1` (stereo not shown) [ET-112, 6-benzyl-9-(2-chloropropanoyl)-2,6,9-triazaspiro[4.5]decan-1-one], the “% Inhibition at 30 µM” value [4] was 0%.

For `CC(Cl)C(=O)N1CCN(Cc2ccccc2)C2(CCNC2=O)C1` (stereo not shown) [ET-113, 6-benzyl-9-(2-chloropropanoyl)-2,6,9-triazaspiro[4.5]decan-1-one], the “% Inhibition at 30 µM” value [4] was 0%.

In the case of `CC(Cl)C(=O)N1CCN(Cc2ccccc2)C2(CCNC2=O)C1` (stereo not shown) [ET-114, 6-benzyl-9-(2-chloropropanoyl)-2,6,9-triazaspiro[4.5]decan-1-one], the “% Inhibition at 30 µM” value [4] is reported as 0%.

For `CCC(CC)OC(=O)C(C)NP(=O)(OCC(=O)N1CCN(Cc2ccccc2)C2(CCNC2=O)C1)Oc1ccccc1` (stereo not shown) [ET-115, Pentan-3-yl ((2-(6-benzyl-1-oxo-2,6,9-triazaspiro[4.5]decan-9-yl)-2-oxoethoxy)(phenoxy)phosphoryl)alaninate], the “% Inhibition at 30 µM” value [5] was 31%.

In the case of `CCC(CC)OC(=O)C(C)NP(=O)(OCC(=O)N1CCN(Cc2ccccc2)C2(CCNC2=O)C1)Oc1ccccc1` (stereo not shown) [ET-116, Pentan-3-yl ((2-(6-benzyl-1-oxo-2,6,9-triazaspiro[4.5]decan-9-yl)-2-oxoethoxy)(phenoxy)phosphoryl)alaninate], the “% Inhibition at 30 µM” value [5] is reported as 28%.

For `CCC(CC)OC(=O)C(C)NP(=O)(OCC(=O)N1CCN(Cc2ccccc2)C2(CCNC2=O)C1)Oc1ccccc1` (stereo not shown) [ET-117, Pentan-3-yl ((2-(6-benzyl-1-oxo-2,6,9-triazaspiro[4.5]decan-9-yl)-2-oxoethoxy)(phenoxy)phosphoryl)alaninate], the “% Inhibition at 30 µM” value [5] was 15%.

With `CCC(CC)OC(=O)C(C)NP(=O)(OCC(=O)N1CCN(Cc2ccccc2)C2(CCNC2=O)C1)Oc1ccccc1` (stereo not shown) [ET-118, Pentan-3-yl ((2-(6-benzyl-1-oxo-2,6,9-triazaspiro[4.5]decan-9-yl)-2-oxoethoxy)(phenoxy)phosphoryl)alaninate] the “% Inhibition at 30 µM” value [5] was 34%.

Work on `CCC(CC)OC(=O)[C@H](C)NP(=O)(OCC(=O)N1CCN(Cc2ccccc2)C2(CCNC2=O)C1)Oc1ccccc1` (stereo partly shown) [ET-119, Pentan-3-yl ((2-(6-benzyl-1-oxo-2,6,9-triazaspiro[4.5]decan-9-yl)-2-oxoethoxy)(phenoxy)phosphoryl)alaninate] yielded an inhibition at 30 µM [3] of 34%.

With `CCC(CC)OC(=O)[C@H](C)NP(=O)(OCC(=O)N1CCN(Cc2ccccc2)C2(CCNC2=O)C1)Oc1ccccc1` (stereo partly shown) [ET-120, Pentan-3-yl ((2-(6-benzyl-1-oxo-2,6,9-triazaspiro[4.5]decan-9-yl)-2-oxoethoxy)(phenoxy)phosphoryl)alaninate] the “% Inhibition at 30 µM” value [5] was 30%.

— patent publication US20230210851A1, “SPIRO-LACTAM COMPOUNDS AND METHODS OF TREATING VIRAL INFECTIONS USING THE SAME” (Aptinyx Inc., priority 2020, published 2023)
